The text below walks through data of patent publication US4287191A, “Novel salicylanilides and microbiocidal compositions and uses thereof” (The Research Foundation of State University of New York, priority 1980, dated 1981).

In brackets after ≈: the same amount, converted by molar mass. Like-named read-outs stand apart in the source and are kept apart here. Some results are limits rather than exact numbers.

As a reminder, the LD50 is the dose expected to kill half of the subjects tested. A lower LD50 goes with greater toxicity.

The subject of one data set is Actinomyces viscosus. Nature of the data set: Minimum concentration which will completely inhibit growth, Actinomyces viscosus. The note with it: A.viscosus, growth medium, read-out: Min. Conc. (minimum concentration which will completely inhibit growth). The data set is classed as cell-based.
In a further data set the test system is Staphylococcus aureus. Nature of the data set: Minimum concentration to completely inhibit growth, Staphylococcus aureus. The note with it: procedure of Example 6. The data set is classed as cell-based. On the procedure:
AN-10 is tested for effectiveness against the bacterium Staphylococcus aureus in accordance with the procedure set forth in Example 6.

Data set [1] is described as follows: Acute oral toxicity of AN-10 (single dose, gavage). In kind it is in vivo. As to the method:
Sixteen female white rats averaging 265 grams in weight were fasted overnight and divided into four groups of four animals each. In one group each animal received, by gavage tube, 4 ml of an aqueous solution of 1% methylcellulose, the drug delivery vehicle. This group was the control group. The remaining three groups received doses of 50, 750, and 2000 mg/kg of AN-10 in 4-ml aqueous suspension, respectively.
This animal had received the 50 mg/kg dose.
From this experiment it can be concluded that the LD50 for AN-10 by the single dose oral route is greater than 2000 mg/kg in Osborne-Mendel white rats.

Data set [2] deals with S.mutans. Nature of the data set: Plaque growth inhibition in vitro on bovine tooth slabs, S.mutans. The data set is classed as cell-based, Streptococcus mutans. The note with it: for IC50: Streptococcus mutans, 2 min slab exposure, about 24 h incubation, anaerobic, reliability + or -80% or better. As to the method:
(§1) The composition prepared in example 2 above is tested in vitro for plaque inhibition in comparison with prior art compounds. The test used is set forth in detail in Comparison of Antiplaque Agents Using an In Vitro Assay Reflecting Oral Conditions by R. T. Evans et al, Journal of Dental Research, June 1977.
(§2) In summary bovine mandibles, obtained immediately after slaughter, are cut into 4×8 mm slabs and sterilized in a 0.15 M NaCl solution buffered at a pH of 7.5 with 0.02 M sodium phosphate (PBS soln.) Before use the slabs are coated with sterile saliva and then rinsed twice in sterile PBS. The slabs are then placed in small plastic petri dishes containing various concentrations of the compositions to be tested. The test solution used in accordance is a solution of the composition in a mixture of 20% by volume of ethanol, 40% by volume of propylene glycol and 40% by volume of a pH 8 aqueous buffer solution containing mono and di sodium phosphates. The slabs are left in the solution of the composition for two minutes and then rinsed in sterile PBS solution. After rinsing, each slab is placed in a 10×75 mm cotton stoppered glass culture tube containing 1 ml of sucrose-broth culture medium which is then innoculated with a 24 hour culture of the desired microorganism standardized to an optical density (OD) 540 of 1.0 for A. naeslundii and S. sanguis and of 0.75 for A. viscosus and S. mutans. 50 μl of the inoculation medium is used. A. viscosus is incubated under aerobic conditions and the others are incubated under anaerobic conditions (5% CO2 and 95% H2). After incubation for about 24 hours the nonadherent organisms are removed and the tube is rinsed twice with 0.5 ml of PBS and the washings combined with the nonadherent organisms.
(§3) The tooth slabs are then transferred to 1 ml of 0.1 N NaOH and 1 ml of 0.1 N NaOH is also added to the glass culture tubes. The slabs and tubes are then sonically agitated, if necessary to suspend the adherent organisms. The optical density of each of the three fractions is then measured on a spectophotometer. The tests are repeated with varying concentrations of the compositions being tested until growth inhibition curves can be developed. The 50% growth inhibition dosages (ID50) are then determined with a reliability of + or -80% or better.

A further data set deals with A.naeslundii. Nature of the data set: Plaque growth inhibition in vitro on bovine tooth slabs, A.naeslundii. In kind it is cell-based, Actinomyces naeslundii. The note with it: for IC50: Actinomyces naeslundii, 2 min slab exposure, about 24 h incubation, anaerobic, reliability + or -80% or better. As to the method:
as §1, §2, §3

The test system of data set [3] is S.mutans. Nature of the data set: Bactericidal effects against established dental plaque (nichrome wires), S.mutans. In kind it is cell-based. The note with it: Streptococcus mutans, 2 min, read-out: Minimum Concentration Required for Complete Bactericidal Effect. On the procedure: (§4) In vitro plaques are grown on no. 20 nichrome wires by fixing the wires to culture tube closures to suspend the wires into a complex culture medium supplemented with 5% by wt of sucrose and 0.005% sodium carbonate. Separate cultures are initially inoculated with A.viscosus and S.mutans and the wires are transferred daily to fresh medium until the wire-adherent microorganisms form well established plaques. All cultures are incubated at 37 degrees C. Plaque coated wires are then immersed in a solution of composition to be tested. The compositions tested are AN-10 and Chlorhexidine. The immersion time is two minutes. The solution in which the composition is dissolved is the same solution used to dissolve the composition in the previous example. The plaque is then rinsed with distilled water and transferred to fresh medium. The lack of growth in the fresh medium is considered as an indication that the microorganisms have been killed. Further plaque coated wires are treated as previously described until sufficient information is obtained to determine the minimum concentration of composition required to kill the microorganisms.

For data set [4], the system named is A.viscosus. Nature of the data set: Plaque growth inhibition in vitro on bovine tooth slabs, A.viscosus. The data set is classed as cell-based, Actinomyces viscosus. The note with it: for IC50: Actinomyces viscosus, 2 min slab exposure, about 24 h incubation, aerobic, reliability + or -80% or better. As to the method: as §1, §2, §3
Data set [5] concerns A.viscosus. Nature of the data set: Bactericidal effects against established dental plaque (nichrome wires), A.viscosus. The note with it: Actinomyces viscosus, 2 min, read-out: Minimum Concentration Required for Complete Bactericidal Effect. In kind it is cell-based. As to the method: as §4
The next data set relates to S.sanguis. Nature of the data set: Plaque growth inhibition in vitro on bovine tooth slabs, S.sanguis. The data set is classed as cell-based, Streptoccus sanguis. The note with it: for IC50: 2 min slab exposure, about 24 h incubation, anaerobic, reliability + or -80% or better; for % Inhibition @ Mol.Conc.: @ 1 × 10^-3 Mol.Conc. On the procedure:
as §1, §2, §3

Another data set has as its system S. mutans. Nature of the data set: Minimum concentration which will completely inhibit growth, S. mutans. The data set is classed as cell-based. The note with it: Streptococcus mutans, procedure of Example 6. As to the method:
5-n-octanoyl-2',3',4',5',6'pentafluorosalicylanilide is tested for effectiveness against S. mutans essentially in accordance with the procedure of Example 6.

For data set [6] the following is noted: background statement; cited from earlier work.
The mark [7] stands for this setting: S.mutans established plaque, immersion time two minutes.
[8] abbreviates: A.viscosus established plaque, immersion time two minutes.

In the case of `CCCCCCCCCCCC(=O)c1ccc(O)c(C(=O)Nc2ccc([N+](=O)[O-])cc2)c1` [5-n-dodecoyl-4'-nitrosalicylanilide], in the data set with Actinomyces viscosus, the MIC is 0.05 µg/mL (≈ 0.113 µM).

In the data set with Staphylococcus aureus, `CCCCCCCCCC(=O)c1ccc(O)c(C(=O)Nc2ccc([N+](=O)[O-])cc2)c1` [AN-10, 5-n-decanoyl-4'-nitrosalicylanilide] had an MIC of less than 10 µg/mL. Moreover, in data set [1] (50, 750 and 2000 mg/kg oral, four rats each, the one death (50 mg/kg) attributed to trauma of administration), the “deaths within the first week following single dose” value is on record as “only one animal died”. Also, the LD50 in data set [1] (rat, in vivo, single dose oral route, female Osborne-Mendel white rats) was greater than 2000 mg/kg. The “% Inhibition @ Mol.Conc.” value in the data set with S.mutans [2] (@ 1 × 10^-3 Mol.Conc.) amounted to 59%; with A.naeslundii (@ 3.3 × 10^-4 Mol.Conc.) it was 96%; with A.viscosus [4] (@ 1 × 10^-4 Mol.Conc.), 96%; with S.sanguis, 86%. Also, the IC50 in the data set with S.mutans [2] (read-out: ID50 Adherent Growth) is 23000 µM; in the data set with S.mutans [2] (read-out: ID50 Total Growth), 1600 µM; with A.naeslundii (read-out: ID50 Adherent Growth), 43 µM; with A.naeslundii (read-out: ID50 Total Growth) it was 83 µM; in the data set with A.viscosus [4] (read-out: ID50 Adherent Growth) it was 70 µM; in the data set on A.viscosus [4] (read-out: ID50 Total Growth), 73 µM. Besides, the figures for the IC50 in the data set on S.sanguis (read-out: ID50 Adherent Growth) and with S.sanguis (read-out: ID50 Total Growth) were 670 µM and 370 µM, respectively. The MBC with S.mutans [3] (setting [7]) was 62.5 µg/mL (≈ 152 µM); in the data set on A.viscosus [5] (setting [8]) it was 125 µg/mL (≈ 303 µM).

For `O=C(Nc1ccc(Br)cc1)c1cc(Br)cc(Br)c1O` [TBS, Tribromosalan], the “% Inhibition @ Mol.Conc.” value amounted to 46% in the data set with S.mutans [2] (@ 1.5 × 10^-3 Mol.Conc.), 86% with A.naeslundii (@ 1.5 × 10^-3 Mol.Conc.), 53% in the data set with A.viscosus [4] (@ 1 × 10^-3 Mol.Conc.) and 46% in the data set with S.sanguis. For the same molecule, the MBC stood at 1000 µg/mL (≈ 2220 µM) with S.mutans [3] and 500 µg/mL (≈ 1110 µM) in the data set on A.viscosus [5].

For the molecule `CCCCCCCC(=O)c1ccc(O)c(C(=O)Nc2c(F)c(F)c(F)c(F)c2F)c1` [5-n-octanoyl-2',3',4',5',6'pentafluorosalicylanilide], in the data set on S. mutans, the MIC was roughly 0.5 µg/mL (≈ 1.16 µM).

For the molecule `CCCCCCCCCCCC(=O)c1ccc(O)c(C(=O)Nc2ccc(Br)cc2)c1` [5-n-dodecoyl-4'-bromosalicylanilide], in the data set with Actinomyces viscosus, the MIC worked out at 0.05 µg/mL (≈ 0.105 µM).

tetrachlorosalicylanilide: in data set [6], the “allergic reactions in man” value was “allergic reactions in man”.

Turning to `CCCCCCCCCC(=O)c1ccc(O)c(C(=O)Nc2ccc(Br)cc2)c1` [5-n-decoyl-4'-bromosalicylanilide], in the data set with Actinomyces viscosus, the MIC was determined as 0.125 µg/mL (≈ 0.28 µM).

For `CCCCCCCC(=O)c1ccc(O)c(C(=O)Nc2ccc([N+](=O)[O-])cc2)c1` [5-n-octoyl-4'-nitrosalicylanilide], in the data set on Actinomyces viscosus, the MIC came out at 0.125 µg/mL (≈ 0.325 µM).

For `[H]/N=C(\N/C(=N/[H])NCCCCCCNC(=N)NC(=N)Nc1ccc(Cl)cc1)Nc1ccc(Cl)cc1` [CLHX, Chlorhexidine], the “% Inhibition @ Mol.Conc.” value came out at 95% in the data set with S.mutans [2] (@ 1 × 10^-3 Mol.Conc.), 78% with A.naeslundii (@ 1 × 10^-3 Mol.Conc.), 85% with A.viscosus [4] (@ 1 × 10^-3 Mol.Conc.) and 70% in the data set with S.sanguis. Further, the IC50 in the data set on S.mutans [2] (read-out: ID50 Adherent Growth) was 97 µM; with S.mutans [2] (read-out: ID50 Total Growth) it was 86 µM; in the data set with A.naeslundii (read-out: ID50 Adherent Growth), 5100 µM; with A.naeslundii (read-out: ID50 Total Growth), 4400 µM; in the data set with A.viscosus [4] (read-out: ID50 Adherent Growth) it was 29 µM; in the data set on A.viscosus [4] (read-out: ID50 Total Growth), 23 µM. Also, the results for the IC50 with S.sanguis (read-out: ID50 Adherent Growth) and in the data set with S.sanguis (read-out: ID50 Total Growth) were 85000 µM and 390 µM, respectively. Further, the MBC is 250 µg/mL (≈ 495 µM) in the data set on S.mutans [3] (setting [7]) and 500 µg/mL (≈ 989 µM) with A.viscosus [5] (setting [8]).

On to `O=C(Nc1cccc(C(F)(F)F)c1)c1cc(Br)cc(Br)c1O` [SBF-1, Fluorophene], for which the “% Inhibition @ Mol.Conc.” value was 86% in the data set with S.mutans [2] (@ 2 × 10^-3 Mol.Conc.) and 65% in the data set on A.viscosus [4] (@ 3.3 × 10^-3 Mol.Conc.).

On to `CCCCCCCCCCCC(=O)c1ccc(O)c(C(=O)Nc2cccc(C(F)(F)F)c2)c1` [5-n-dodecoyl-3'-trifluoromethylsaliclyanilide], for which, in the data set with Actinomyces viscosus, the MIC fell in the range of 0.5 to 1 µg/mL (≈ 1.08 to 2.16 µM).
